According to patent US8445493B2, “Tetrasubstituted pyridazines hedgehog pathway antagonists” (Eli Lilly and Company, priority 2008, dated 2013):
Where a name gives a salt, the structure may show the parent alone.

System: Gli1 transcript in Shh-stimulated Daoy cells
Assay: Functional assay for measuring the inhibition of Gli1 in Daoy cells (bDNA assay)
Format: cell-based
Conditions: Homo sapiens; Daoy cells stimulated with Shh conditioned media, 24 hours incubation with compound, Gli1 transcript by bDNA luminescence
Procedure: Biological activity is determined using a functional assay in Daoy neuronal cancer cells and measures levels of Gli1 ribonucleic acid via a bDNA (branched deoxyribonucleic acid) assay system (Panomics, Inc., Fremont, Calif.). Gli was originally discovered in a Glioblastoma cell line and encodes a zinc finger protein that is activated by Shh signaling. The maximum response is obtained by inducing Gli1 transcription in the Daoy cells with conditioned medium (human embryonic kidney, HEK-293 cells stably expressing recombinant Shh) for 24 hours and then measuring the amount of stimulated Gli1 transcript. […]
The bDNA assay system utilizes the technology of branched-chain DNA to allow amplification of a target ribonucleic acid (transcript). […] The addition of a chemilumigenic substrate during the amplification step allows for detection using luminescence. […]
Daoy cells are grown to confluency in tissue culture T225-flasks in Daoy growth media containing Minimum Essential Medium (MEM) plus 10% Fetal Bovine Serum (FBS) with […] non-essential amino acids and 1 mM sodium pyruvate. The cells are removed from the T225-flasks using trypsin ethylenediaminetetraacetic acid (EDTA), centrifuged, resuspended in media, and then counted. […]

Cc1c(-c2ccccc2)nnc(N2CCN(C(=O)NC3CCC(F)(F)CC3)[C@@H](C)C2)c1C [Example 1, (S)—N-(4,4-Difluorocyclohexyl)-4-(4,5-dimethyl-6-phenylpyridazin-3-yl)-2-methylpiperazine-1-carboxamide hydrochloride]
IC50: ~1.26 nM
